Results from patent US6495551B1, “Substituted phenyloxazolidinones and their use as antibiotics” (priority 1997, dated 2002).
Converted amounts (≈) assume the structure as drawn.

What was measured:
Assay in all cases: MIC by agar-dilution, standard in vitro test system
Type in all cases: cell-based
Settings in all cases: IsoSensitest agar, inoculum 10^4 CFU/spot, 37° C. for 24 hours
[1] = tested on: Coagulase Negative Staphylococcus MR (methicillin resistant)
Description: (§1) The following results were obtained on a standard in vitro test system. The activity is described in terms of the minimum inhibitory concentration (MIC) determined by the agar-dilution technique with an inoculum size of 10^4 CFU/spot.
(§2) The organisms were tested on a standard semi-defined susceptability test medium (IsoSensitest agar), using an inoculum of 10^4 CFU/spot and an incubation temperature of 37° C. for 24 hours.

[2] = tested on: Streptococcus pyogenes C203
Description: as §1, with “CFU/spot. The organisms were tested on a standard semi-defined susceptability test medium (IsoSensitest agar), using an inoculum of 10^4 CFU/spot and an incubation temperature of 37° C. for 24 hours.” for “CFU/spot.”

Enterococcus faecalis = tested on: Enterococcus faecalis
Description: as §1, with “CFU/spot. The organisms were tested on a standard semi-defined susceptability test medium (IsoSensitest agar), using an inoculum of 10^4 CFU/spot and an incubation temperature of 37° C. for 24 hours.” for “CFU/spot.”

Bacillus subtilis = tested on: Bacillus subtilis
Description: as §1, with “CFU/spot. The organisms were tested on a standard semi-defined susceptability test medium (IsoSensitest agar), using an inoculum of 10^4 CFU/spot and an incubation temperature of 37° C. for 24 hours.” for “CFU/spot.”

[3] = tested on: Coagulase Negative Staphylococcus MS
Description: as §1, with “CFU/spot. The organisms were tested on a standard semi-defined susceptability test medium (IsoSensitest agar), using an inoculum of 10^4 CFU/spot and an incubation temperature of 37° C. for 24 hours.” for “CFU/spot.”

[4] = tested on: Staphylococcus aureus Oxford
Description: as §1, with “CFU/spot. The organisms were tested on a standard semi-defined susceptability test medium (IsoSensitest agar), using an inoculum of 10^4 CFU/spot and an incubation temperature of 37° C. for 24 hours.” for “CFU/spot.”

[5] = tested on: Staphylococcus aureus Novb. Res (Novobiocin resistant)
Description: as §1, §2
Novb. Res=Novobiocin resistant

[6] = tested on: Staphylococcus aureus MRQR (methicillin resistant quinolone resistant)
Description: as §1, §2
MRQR=methicillin resistant quinolone resistant

SMILES: CC(=O)NC[C@H]1CN(c2ccc(-n3cnc(C(=O)Nc4nccs4)c3)c(F)c2)C(=O)O1 [Example 43, N-[(5S)-3-(3-Fluoro-4-(4-(thiazol-2-ylaminocarbonyl)imidazol-1-yl)phenyl)-2-oxooxazolidin-5-ylmethyl]acetamide]
- MIC [1]: 0.25 µg/mL (≈ 0.562 µM)
- MIC [2]: 0.125 µg/mL (≈ 0.281 µM)
- MIC (Enterococcus faecalis): 0.5 µg/mL (≈ 1.12 µM)
- MIC (Bacillus subtilis): 0.25 µg/mL (≈ 0.562 µM)
- MIC [3]: 0.06 µg/mL (≈ 0.135 µM)
- MIC [4]: 0.125 µg/mL (≈ 0.281 µM)
- MIC [5]: 0.25 µg/mL (≈ 0.562 µM)
- MIC [6]: 1 µg/mL (≈ 2.25 µM)
